From patent US20260327211A1, “MODULATORS OF A POTASSIUM CHANNEL AND OF TRPV1 CHANNEL AND USES THEREOF” (Bsense Bio Therapeutics Ltd., priority 2023, published 2026)

Experiments:
[1] = tested on: HepG2 cells; assay: HepG2 toxicity, ATPlite; assay type: cell-based, human; conditions: up to limit of solubility
Description: Cell culture: HepG2 cell-line cells were cultured in EMEM (ATCC 30-2033) medium supplemented with 10% fetal bovine serum (Biological Industries) in a humidified 5% CO2 incubator at 37° C.
ATPlite™ 1step Kit: ATPlite™ 1step kit (PerkinElmer) was used in a 384-wells format to assess potential liver toxicity using HepG2 cells. This is an ATP detection system based on firefly luciferase luminescence for the quantitative evaluation of proliferation and cytotoxicity of cells. ATP is a marker for cell viability because it is present in all metabolically active cells and its concentration declines very rapidly when the cells undergo necrosis or apoptosis.
According to an optimization process done to achieve uniform and consistent screening condition of molecules, the following protocol was established: Cells were seeded in 384-well, black-walled, clear-bottomed, at a density of 4000 cells per well […] and incubated overnight in their normal growth medium. On day two (48 hours before viability measurement), the tested compounds and the positive control were applied to the wells according to the plate design. […] 48 hours later, reconstituted lyophilized substrate solution was added to each well and the sealed 384-well microplate was mixed for 2 minutes at 1100 rpm in an orbital microplate and plates were incubated for 10 minutes in the dark at room temperature. Right after, luminescence was measured in the Tecan plate reader. To estimate the LD50 and LD25 values the data was fitted to sigmoidal regression using Prism-GraphPad. […]

[2] = target: T1, 5-HT1B (Homo sapiens, UniProt P28222); assay: Functional selectivity panel, 5-HT1B; assay type: biochemical
T1 construct: Eurofins DiscoverX, USA
Description: (§1) A broad panel of 78 recombinant targets was tested for pharmacologic activity in vitro through a variety of functional assays (Eurofins DiscoverX, USA), as part of the National Institute of Neurological Disorders and Stroke (NINDS) Preclinical Screening Platform for Pain (PSPP) program. The biological targets for the in vitro profiling have been selected based on avoiding opioid receptor stimulation and targets known to be associated with adverse events or targeted by drugs of abuse. […] For each test, a reference compound was evaluated at the target of interest as a positive control.

[3] = tested on: Distal Tibial Injury (DTI) rats; assay: Distal Tibial Injury (DTI) model, von Frey; assay type: in vivo, rat; conditions: 100 mg/kg oral, 6 hours post-dose
Description: All animal experiments were carried out according to the Guide for the Care and Use of Laboratory Animals (2011 edition) and approved by the Israel National Institutional Animal Care and Use Committee (IACUC). Young adult male SD rats (Envigo RMS, Israel), were used for in vivo efficacy: Spared Nerve Injury (SNI), Distal Tibial Injury (DTI) and Post-operative Pain (POP), 200-220 grams, Chronic Post-Ischemia Pain (CPIP) 275-325 grams, Monosodium iodoacetate-induced osteoarthritis (MIA-OA) 180-220 grams; for in vivo safety: 200-250 grams at study initiation. […] The health status of the animals used in this study was examined upon their arrival. Only animals in good health were acclimatized to laboratory conditions and were used in the studies. All studies were performed following at least five days of animal acclimation. During acclimation and throughout the entire study duration, animals were housed within a limited-access rodent facility and kept in groups with a maximum of 2-3 rats per polypropylene cage. The cages were fitted with solid bottoms and filled with sterile wood shavings as bedding material. Animals were provided ad libitum with a commercial, sterile rodent diet and had free access to drinking water that was supplied to each cage via polyethylene bottles with stainless steel sipper tubes. […] Water was monitored periodically. […]

[4] = target: OATP1B1 (Homo sapiens, UniProt Q9Y6L6); assay: Transporter substrate, OATP1B1; assay type: in vitro ADME; conditions: role: substrate
Description: (§2) Additionally, compound 760 was tested for its capability to act as a transporter substrate for various transporters, and was not found to be a transporter substrate for any of the tested transporters.

[5] = tested on: Dopamine D1-D5; assay: Functional screening panel, Dopamine D1-D5; assay type: biochemical; conditions: up to 10 micromolar
Description: as §1

[6] = target: Cav1.2 (Homo sapiens, UniProt Q13936); assay: Functional screening panel, Cav1.2; assay type: biochemical; conditions: read-out: IC/EC50 Cav1.2
Description: as §1

[7] = target: OCT1 (Homo sapiens, UniProt O15245); assay: Transporter substrate, OCT1; assay type: in vitro ADME; conditions: role: substrate
Description: as §2

[8] = tested on: Salmonella typhimurium (TA98, TA100, TA1535, TA1537) and Escherichia coli WP2uvrA (pKM101); assay: Mini-Ames assay; assay type: cell-based; conditions: 5 strains, with and without S9
Description: The Mini-Ames assay was performed according to the regulatory guidelines. In brief, 5 strains were selected for testing: Salmonella typhimurium (TA98, TA100, TA1535, TA1537) and Escherichia coli WP2uvrA (pKM101). A standard six-well culture plate with top agar containing 0.6% (w/v) agar and 0.5% (w/v) sodium chloride was supplemented with 0.5 mM D-biotin and 0.5 mM L-histidine for Salmonella typhimurium strains or 0.5 mM D-biotin and 0.5 mM L-tryptophan for Escherichia coli WP2uvrA (pKM101). […] Average number of revertants for each dose group condition was compared to negative control, and cytotoxicity and precipitates were recorded.

Chain of OATP1B1 (Q9Y6L6 whole entry): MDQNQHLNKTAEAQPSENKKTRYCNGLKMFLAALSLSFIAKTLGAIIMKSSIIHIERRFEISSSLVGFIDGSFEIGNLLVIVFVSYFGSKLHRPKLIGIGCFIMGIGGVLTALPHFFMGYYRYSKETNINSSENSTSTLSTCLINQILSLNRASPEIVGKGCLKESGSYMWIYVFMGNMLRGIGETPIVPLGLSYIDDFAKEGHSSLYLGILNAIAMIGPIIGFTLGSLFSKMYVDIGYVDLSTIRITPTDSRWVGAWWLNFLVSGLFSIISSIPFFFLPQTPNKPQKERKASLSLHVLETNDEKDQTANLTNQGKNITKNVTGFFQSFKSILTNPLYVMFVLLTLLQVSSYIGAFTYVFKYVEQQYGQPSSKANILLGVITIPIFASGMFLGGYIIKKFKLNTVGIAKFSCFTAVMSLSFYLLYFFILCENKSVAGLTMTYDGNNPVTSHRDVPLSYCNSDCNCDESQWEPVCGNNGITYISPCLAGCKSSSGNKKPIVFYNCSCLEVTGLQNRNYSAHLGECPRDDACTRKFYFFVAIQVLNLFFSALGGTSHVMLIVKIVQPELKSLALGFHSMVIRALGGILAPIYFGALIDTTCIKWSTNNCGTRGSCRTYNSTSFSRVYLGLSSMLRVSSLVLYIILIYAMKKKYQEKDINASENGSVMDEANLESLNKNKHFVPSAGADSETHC
T1 sequence (P28222 whole entry): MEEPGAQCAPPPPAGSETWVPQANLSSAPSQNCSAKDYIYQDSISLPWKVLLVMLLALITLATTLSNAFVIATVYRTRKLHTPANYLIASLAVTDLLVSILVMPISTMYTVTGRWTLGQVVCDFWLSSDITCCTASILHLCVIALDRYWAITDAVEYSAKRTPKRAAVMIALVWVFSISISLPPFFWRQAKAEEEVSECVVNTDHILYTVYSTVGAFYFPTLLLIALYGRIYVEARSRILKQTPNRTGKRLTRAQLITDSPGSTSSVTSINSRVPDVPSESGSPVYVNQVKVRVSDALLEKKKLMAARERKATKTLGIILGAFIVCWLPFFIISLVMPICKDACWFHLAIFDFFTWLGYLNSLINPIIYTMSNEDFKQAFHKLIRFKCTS
Chain of Cav1.2 (Q13936 whole entry): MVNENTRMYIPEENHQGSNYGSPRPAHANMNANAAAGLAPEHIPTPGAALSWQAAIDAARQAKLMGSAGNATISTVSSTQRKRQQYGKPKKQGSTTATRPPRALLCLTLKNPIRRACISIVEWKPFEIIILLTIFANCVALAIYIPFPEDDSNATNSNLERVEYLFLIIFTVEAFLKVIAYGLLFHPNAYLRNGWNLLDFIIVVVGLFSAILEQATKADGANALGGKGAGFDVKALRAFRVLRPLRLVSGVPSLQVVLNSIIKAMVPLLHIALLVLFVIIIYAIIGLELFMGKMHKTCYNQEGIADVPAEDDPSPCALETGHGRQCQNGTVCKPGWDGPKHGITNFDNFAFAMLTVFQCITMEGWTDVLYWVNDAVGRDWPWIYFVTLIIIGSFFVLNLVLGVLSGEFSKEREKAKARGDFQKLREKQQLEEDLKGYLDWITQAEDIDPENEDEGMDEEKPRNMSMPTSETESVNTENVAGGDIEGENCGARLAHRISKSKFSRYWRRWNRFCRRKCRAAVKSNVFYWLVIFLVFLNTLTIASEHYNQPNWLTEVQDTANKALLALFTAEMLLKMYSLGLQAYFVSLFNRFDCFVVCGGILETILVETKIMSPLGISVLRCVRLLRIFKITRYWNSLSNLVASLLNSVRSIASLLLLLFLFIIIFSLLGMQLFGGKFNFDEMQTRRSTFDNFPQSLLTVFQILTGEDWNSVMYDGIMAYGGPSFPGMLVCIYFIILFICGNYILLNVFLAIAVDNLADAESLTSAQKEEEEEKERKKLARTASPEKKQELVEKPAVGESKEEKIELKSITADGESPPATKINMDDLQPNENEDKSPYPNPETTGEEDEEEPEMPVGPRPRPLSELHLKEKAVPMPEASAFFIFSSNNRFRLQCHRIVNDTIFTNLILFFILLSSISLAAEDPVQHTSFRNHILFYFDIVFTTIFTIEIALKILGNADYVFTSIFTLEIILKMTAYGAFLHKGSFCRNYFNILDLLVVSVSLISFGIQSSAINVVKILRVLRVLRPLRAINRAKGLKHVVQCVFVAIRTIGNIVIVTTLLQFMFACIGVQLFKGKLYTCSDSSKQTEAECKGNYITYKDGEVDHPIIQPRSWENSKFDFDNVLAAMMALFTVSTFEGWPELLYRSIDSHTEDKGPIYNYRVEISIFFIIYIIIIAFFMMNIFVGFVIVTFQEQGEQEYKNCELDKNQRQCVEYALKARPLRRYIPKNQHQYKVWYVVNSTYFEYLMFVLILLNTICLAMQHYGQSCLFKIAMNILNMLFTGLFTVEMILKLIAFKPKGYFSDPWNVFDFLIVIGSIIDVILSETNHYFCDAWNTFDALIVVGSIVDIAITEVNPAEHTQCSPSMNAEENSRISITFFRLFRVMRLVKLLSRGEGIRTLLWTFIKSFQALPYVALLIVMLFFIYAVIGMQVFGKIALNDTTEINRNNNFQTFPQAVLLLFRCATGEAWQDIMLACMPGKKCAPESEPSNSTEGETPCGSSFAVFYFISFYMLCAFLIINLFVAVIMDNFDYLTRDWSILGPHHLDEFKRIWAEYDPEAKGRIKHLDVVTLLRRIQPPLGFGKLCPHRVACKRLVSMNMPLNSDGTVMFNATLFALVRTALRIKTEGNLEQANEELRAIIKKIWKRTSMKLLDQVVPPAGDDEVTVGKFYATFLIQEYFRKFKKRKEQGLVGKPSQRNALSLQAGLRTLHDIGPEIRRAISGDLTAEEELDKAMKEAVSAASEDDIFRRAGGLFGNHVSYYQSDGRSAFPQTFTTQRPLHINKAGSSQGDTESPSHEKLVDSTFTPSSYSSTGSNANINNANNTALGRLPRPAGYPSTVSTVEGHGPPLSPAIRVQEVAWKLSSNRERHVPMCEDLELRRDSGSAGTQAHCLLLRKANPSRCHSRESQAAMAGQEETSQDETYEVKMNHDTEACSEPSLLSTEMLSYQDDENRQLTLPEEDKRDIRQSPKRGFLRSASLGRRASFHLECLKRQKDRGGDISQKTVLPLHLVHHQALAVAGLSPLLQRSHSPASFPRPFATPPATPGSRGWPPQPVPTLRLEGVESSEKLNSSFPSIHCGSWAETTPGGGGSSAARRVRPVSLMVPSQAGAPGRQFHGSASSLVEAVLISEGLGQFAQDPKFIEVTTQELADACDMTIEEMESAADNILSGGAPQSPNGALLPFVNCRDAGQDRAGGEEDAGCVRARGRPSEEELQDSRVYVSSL
Chain of Cav1.2 (P54289 25-944 partner limits assumed): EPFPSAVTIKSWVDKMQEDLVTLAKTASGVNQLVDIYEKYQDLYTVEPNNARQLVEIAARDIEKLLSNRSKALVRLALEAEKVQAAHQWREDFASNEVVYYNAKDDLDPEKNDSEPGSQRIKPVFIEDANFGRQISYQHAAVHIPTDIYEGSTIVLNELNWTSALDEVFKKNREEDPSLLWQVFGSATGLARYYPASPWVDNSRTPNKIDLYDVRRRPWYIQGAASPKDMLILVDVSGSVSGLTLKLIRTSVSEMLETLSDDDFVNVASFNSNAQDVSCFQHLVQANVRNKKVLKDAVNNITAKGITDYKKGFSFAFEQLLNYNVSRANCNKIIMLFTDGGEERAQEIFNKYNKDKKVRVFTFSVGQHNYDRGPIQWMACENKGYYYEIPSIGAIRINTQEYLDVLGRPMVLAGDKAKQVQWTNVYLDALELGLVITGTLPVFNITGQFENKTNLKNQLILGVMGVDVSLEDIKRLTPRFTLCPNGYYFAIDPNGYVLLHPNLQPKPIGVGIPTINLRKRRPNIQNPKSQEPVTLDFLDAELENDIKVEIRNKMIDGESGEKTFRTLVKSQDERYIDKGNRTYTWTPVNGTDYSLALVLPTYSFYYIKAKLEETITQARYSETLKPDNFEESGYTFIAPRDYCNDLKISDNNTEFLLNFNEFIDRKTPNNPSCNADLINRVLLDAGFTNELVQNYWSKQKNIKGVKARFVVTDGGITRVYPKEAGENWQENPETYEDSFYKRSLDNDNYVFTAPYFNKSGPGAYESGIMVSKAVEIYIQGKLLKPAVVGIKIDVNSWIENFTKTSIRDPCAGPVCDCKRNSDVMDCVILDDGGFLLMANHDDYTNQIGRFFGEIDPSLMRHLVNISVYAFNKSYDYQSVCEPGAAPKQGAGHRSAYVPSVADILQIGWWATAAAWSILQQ
Chain of Cav1.2 (P54289 945-1103 partner limits assumed): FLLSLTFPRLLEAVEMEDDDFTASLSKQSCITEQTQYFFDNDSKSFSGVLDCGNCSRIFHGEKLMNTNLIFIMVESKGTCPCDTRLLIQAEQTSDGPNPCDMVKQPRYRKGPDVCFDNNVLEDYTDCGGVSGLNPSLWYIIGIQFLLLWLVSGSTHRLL
Chain of OCT1 (O15245 whole entry): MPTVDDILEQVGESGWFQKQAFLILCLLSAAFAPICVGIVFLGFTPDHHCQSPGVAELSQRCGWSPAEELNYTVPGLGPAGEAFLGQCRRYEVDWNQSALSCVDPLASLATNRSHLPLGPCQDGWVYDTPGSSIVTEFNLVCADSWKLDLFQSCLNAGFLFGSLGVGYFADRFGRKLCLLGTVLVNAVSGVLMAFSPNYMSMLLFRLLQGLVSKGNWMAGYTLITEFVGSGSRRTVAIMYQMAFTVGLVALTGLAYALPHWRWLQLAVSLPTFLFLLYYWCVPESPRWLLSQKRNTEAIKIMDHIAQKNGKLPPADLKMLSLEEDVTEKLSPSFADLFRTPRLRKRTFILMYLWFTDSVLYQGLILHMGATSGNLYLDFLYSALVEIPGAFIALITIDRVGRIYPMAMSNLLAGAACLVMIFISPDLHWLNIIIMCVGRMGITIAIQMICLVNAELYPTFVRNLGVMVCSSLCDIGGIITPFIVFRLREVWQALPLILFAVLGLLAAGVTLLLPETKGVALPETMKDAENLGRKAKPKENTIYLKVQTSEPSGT

IC50 [2] [µM]	Structure (SMILES)	HepG2 toxicity [1]	Reversal of mechanical PWT [3] [%]	OATP1B1 substrate [4]	Effect on Dopamine D1-D5 [5]	IC50 [6] [µM]	OCT1 substrate [7]	Cytotoxic effect in Ames strains [8]	Reversion rates [8]
10	O=C(Cc1cncc(-n2cc(Cl)c3cc(Cl)cc(Cl)c32)c1)N[C@@H]1COC[C@H]1O [Compound 661]	no evidence of toxicity up to the compound's limit of solubility	45.9						
	O=C(Cc1nccc(-n2cc(Cl)c3cc(Cl)cc(Cl)c32)n1)NC1COCC1O (stereo not drawn) [Compound 760]			not a transporter substrate	no effect	2.99	not a transporter substrate	No significant cytotoxic effect	did not induce substantial dose-dependent increases in reversion rates
